For one cell line, relative viability results are on record in the supplement of paper PMC10307832.

Experiment in all cases: relative viability (nuclei count vs DMSO), 5 days (fraction); higher = more cells survive
Compound in test [1]: CC1CC(=O)N(C2=CN=C(N=C2N1C3CCCC3)NC4=C(C=C(C=C4)C(=O)NC5CCN(CC5)C)OC)C [NPK76-II-72-1] + Nc1nc2[nH]cc(CCc3ccc(C(=O)N[C@@H](CCC(=O)O)C(=O)O)cc3)c2c(=O)[nH]1 [Pemetrexed] (partner 0.2 µM)
Put shortly: (§1)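 Relative viability equals treated-well nuclei counts divided by vehicle-well nuclei counts. Counts came from 4× images of lung cancer cell lines grown in 1536-well plates for 5 days after pin-tool dosing on the day after seeding. Dosing used one drug alone or a fixed anchor-drug dose plus five library-drug doses (not always all listed) in √10 steps, and values are medians of duplicate plates.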

Compound in test [2]: CC1CC(=O)N(C2=CN=C(N=C2N1C3CCCC3)NC4=C(C=C(C=C4)C(=O)NC5CCN(CC5)C)OC)C [NPK76-II-72-1] + Nc1ncn([C@H]2C[C@H](O)[C@@H](CO)O2)c(=O)n1 [Decitabine] (partner 2 µM)
Summed up:
as §1

Compound in the test “BI-2536 + Palbociclib”: CC[C@@H]1C(=O)N(C)c2cnc(Nc3ccc(C(=O)NC4CCN(C)CC4)cc3OC)nc2N1C1CCCC1 [BI-2536] + CC(=O)c1c(C)c2cnc(Nc3ccc(N4CCNCC4)cn3)nc2n(C2CCCC2)c1=O [Palbociclib] (partner 0.5 µM)
Summed up:
as §1

Compound in the test “BI-2536 + Decitabine”: CC[C@@H]1C(=O)N(C)c2cnc(Nc3ccc(C(=O)NC4CCN(C)CC4)cc3OC)nc2N1C1CCCC1 [BI-2536] + Nc1ncn([C@H]2C[C@H](O)[C@@H](CO)O2)c(=O)n1 [Decitabine] (partner 2 µM)
Put shortly:
as §1

Regarding UMC-11, the relative viability in test [1] (first compound 0.01 µM) stood at 0.79; in test [1] (first compound 0.03162 µM) it was 0.869; in test [1] (first compound 0.1 µM) it was 0.768; in test [1] (first compound 0.3162 µM) it was 0.728; in test [1] (first compound 1 µM), 0.697; in test [2] (first compound 0.01 µM) it was 0.617. Further, the relative viability in test [2] (first compound 0.03162 µM) worked out at 0.57; in test [2] (first compound 0.1 µM) it was 0.683; in test [2] (first compound 0.3162 µM), 0.505; in test [2] (first compound 1 µM), 0.736; with BI-2536 + Palbociclib (first compound 0.01 µM), 0.295; in the test with BI-2536 + Palbociclib (first compound 0.03162 µM), 0.295. The relative viability in the test with BI-2536 + Palbociclib (first compound 0.1 µM) was found to be 0.228; with BI-2536 + Palbociclib (first compound 0.3162 µM) it was 0.223; in the test with BI-2536 + Palbociclib (first compound 1 µM), 0.23; in the test with BI-2536 + Decitabine (first compound 0.01 µM) it was 0.568; with BI-2536 + Decitabine (first compound 0.03162 µM), 0.306; in the test with BI-2536 + Decitabine (first compound 0.1 µM), 0.232. Besides, the relative viability with BI-2536 + Decitabine (first compound 0.3162 µM) was 0.265; with BI-2536 + Decitabine (first compound 1 µM) it was 0.28.
